# Reference: PubChem BioAssay AID1963985 (Molecular Pharmacology Branch, DTP, NCI, 2024)
# Test system: 252836-082-R-J2-PDC tumor spheroids, viability
# Assay: Anticancer human tumor 252836-082-R-J2-PDC patient-derived head and neck squamous cell carcinoma cell line growth inhibition [PI3K]
# Details: spheroids with HUVEC and MSC; for IC50: curve of first compound; for viability, T/C: stronger effect = lower value
# Summary of the method: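 Spheroid viability read-out. Co-cultures contained the tumor line plus HUVEC and human MSCs. Each agent was paired with a PI3K inhibitor (inavolisib, alpelisib, duvelisib, copanlisib) across half-log dilutions starting at clinical Cmax, or at 10 microM when Cmax was unknown.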
# [1] = second compound 0.0316 µM, first compound 0.0316 µM
# [2] = second compound 0.0316 µM, first compound 0.1 µM
# [3] = second compound 0.0316 µM, first compound 0.316 µM
# [4] = second compound 0.0316 µM, first compound 1 µM
# [5] = second compound 0.0316 µM, first compound 3.16 µM
# [6] = second compound 0.0316 µM, first compound 10 µM
# [7] = second compound 0.1 µM, first compound 0.0316 µM
# [8] = second compound 0.1 µM, first compound 0.1 µM
# [9] = second compound 0.1 µM, first compound 0.316 µM
# [10] = second compound 0.1 µM, first compound 1 µM
# [11] = second compound 0.1 µM, first compound 3.16 µM
# [12] = second compound 0.1 µM, first compound 10 µM
# [13] = second compound 0.316 µM, first compound 0.0316 µM
# [14] = second compound 0.316 µM, first compound 0.1 µM
# [15] = second compound 0.316 µM, first compound 0.316 µM
# [16] = second compound 0.316 µM, first compound 1 µM
# [17] = second compound 0.316 µM, first compound 3.16 µM
# [18] = second compound 0.316 µM, first compound 10 µM
# [19] = second compound 1 µM, first compound 0.0316 µM
# [20] = second compound 1 µM, first compound 0.1 µM
# [21] = second compound 1 µM, first compound 0.316 µM
# [22] = second compound 1 µM, first compound 1 µM
# [23] = second compound 1 µM, first compound 3.16 µM
# [24] = second compound 1 µM, first compound 10 µM
# [25] = second compound 3.16 µM, first compound 0.0316 µM
# [26] = second compound 3.16 µM, first compound 0.1 µM
# [27] = second compound 3.16 µM, first compound 0.316 µM
# [28] = second compound 3.16 µM, first compound 1 µM
# [29] = second compound 3.16 µM, first compound 3.16 µM
# [30] = second compound 3.16 µM, first compound 10 µM
# [31] = second compound 10 µM, first compound 0.0316 µM
# [32] = second compound 10 µM, first compound 0.1 µM
# [33] = second compound 10 µM, first compound 0.316 µM
# [34] = second compound 10 µM, first compound 1 µM
# [35] = second compound 10 µM, first compound 3.16 µM
# [36] = second compound 10 µM, first compound 10 µM
# 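Also: spheroids exposed to agents for seven days before readout.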
# 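For viability, T/C in this document: percent of vehicle DMSO control viability so 100% = untreated growth.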
compound,measurement,setting,value
Cn1nccc1Nc1nccc(-c2ccn(C(CO)c3ccc(Cl)c(F)c3)c(=O)c2)n1 (stereo unspecified) + CC(Nc1ncnc2nc[nH]c12)c1cc2cccc(Cl)c2c(=O)n1-c1ccccc1,IC50,second compound 0.0316 µM,> 10000 nM
same,IC50,second compound 0.1 µM,> 10000 nM
same,IC50,second compound 0.316 µM,> 10000 nM
same,IC50,second compound 1 µM,> 10000 nM
same,IC50,second compound 3.16 µM,> 10000 nM
same,IC50,second compound 10 µM,6580 nM
same,"viability, T/C",[1],83.3%
same,"viability, T/C",[2],99.5%
same,"viability, T/C",[3],91.9%
same,"viability, T/C",[4],99.6%
same,"viability, T/C",[5],93.3%
same,"viability, T/C",[6],66.2%
same,"viability, T/C",[7],100%
same,"viability, T/C",[8],94.8%
same,"viability, T/C",[9],91.3%
same,"viability, T/C",[10],95.9%
same,"viability, T/C",[11],95.9%
same,"viability, T/C",[12],67.2%
same,"viability, T/C",[13],97.2%
same,"viability, T/C",[14],94.5%
same,"viability, T/C",[15],93.7%
same,"viability, T/C",[16],81.1%
same,"viability, T/C",[17],91.9%
same,"viability, T/C",[18],76%
same,"viability, T/C",[19],75.4%
same,"viability, T/C",[20],82.3%
same,"viability, T/C",[21],91.3%
same,"viability, T/C",[22],92.6%
same,"viability, T/C",[23],81.5%
same,"viability, T/C",[24],56.5%
same,"viability, T/C",[25],72.4%
same,"viability, T/C",[26],86.2%
same,"viability, T/C",[27],77.5%
same,"viability, T/C",[28],80.5%
same,"viability, T/C",[29],80.9%
same,"viability, T/C",[30],52.9%
same,"viability, T/C",[31],62%
same,"viability, T/C",[32],64.8%
same,"viability, T/C",[33],78.9%
same,"viability, T/C",[34],73.4%
same,"viability, T/C",[35],62.4%
same,"viability, T/C",[36],41.8%
CC1(C)CCC(CN2CCN(c3ccc(C(=O)NS(=O)(=O)c4ccc(NCC5CCOCC5)c([N+](=O)[O-])c4)c(Oc4cnc5[nH]ccc5c4)c3)CC2)=C(c2ccc(Cl)cc2)C1 + COc1c(OCCCN2CCOCC2)ccc2c3n(c(=NC(=O)c4cnc(N)nc4)nc12)CCN3,IC50,second compound 0.00316 µM,5820 nM
same,IC50,second compound 0.01 µM,5250 nM
same,IC50,second compound 0.0316 µM,3230 nM
same,IC50,second compound 0.1 µM,< 31.6 nM
same,IC50,second compound 0.316 µM,< 31.6 nM
same,IC50,second compound 1 µM,< 31.6 nM
same,"viability, T/C","second compound 0.00316 µM, first compound 0.0316 µM",89.7%
same,"viability, T/C","second compound 0.00316 µM, first compound 0.1 µM",89.2%
same,"viability, T/C","second compound 0.00316 µM, first compound 0.316 µM",89.3%
same,"viability, T/C","second compound 0.00316 µM, first compound 1 µM",83.9%
same,"viability, T/C","second compound 0.00316 µM, first compound 3.16 µM",80.7%
same,"viability, T/C","second compound 0.00316 µM, first compound 10 µM",23%
same,"viability, T/C","second compound 0.01 µM, first compound 0.0316 µM",75.8%
same,"viability, T/C","second compound 0.01 µM, first compound 0.1 µM",67.3%
same,"viability, T/C","second compound 0.01 µM, first compound 0.316 µM",76.2%
same,"viability, T/C","second compound 0.01 µM, first compound 1 µM",84.8%
same,"viability, T/C","second compound 0.01 µM, first compound 3.16 µM",80.4%
same,"viability, T/C","second compound 0.01 µM, first compound 10 µM",15.9%
same,"viability, T/C",[1],59.2%
same,"viability, T/C",[2],56%
same,"viability, T/C",[3],53.3%
same,"viability, T/C",[4],58.9%
same,"viability, T/C",[5],50.2%
same,"viability, T/C",[6],13.9%
same,"viability, T/C",[7],35.9%
same,"viability, T/C",[8],35.8%
same,"viability, T/C",[9],37%
same,"viability, T/C",[10],35.3%
same,"viability, T/C",[11],45.2%
same,"viability, T/C",[12],14.2%
same,"viability, T/C",[13],17.2%
same,"viability, T/C",[14],16.5%
same,"viability, T/C",[15],15.8%
same,"viability, T/C",[16],16.9%
same,"viability, T/C",[17],17.1%
same,"viability, T/C",[18],5.65%
same,"viability, T/C",[19],5.01%
same,"viability, T/C",[20],3.96%
same,"viability, T/C",[21],4.59%
same,"viability, T/C",[22],3.64%
same,"viability, T/C",[23],4.04%
same,"viability, T/C",[24],1.11%
Cn1ncc(Cl)c1-c1cc(C(=O)NC(CN)Cc2cccc(F)c2)sc1Cl (stereo unspecified) + CC(Nc1ncnc2nc[nH]c12)c1cc2cccc(Cl)c2c(=O)n1-c1ccccc1,IC50,second compound 0.0316 µM,642 nM
same,IC50,second compound 0.1 µM,713 nM
same,IC50,second compound 0.316 µM,496 nM
same,IC50,second compound 1 µM,623 nM
same,IC50,second compound 3.16 µM,538 nM
same,IC50,second compound 10 µM,273 nM
same,"viability, T/C",[1],90.3%
same,"viability, T/C",[2],65%
same,"viability, T/C",[3],63.8%
same,"viability, T/C",[4],44.5%
same,"viability, T/C",[5],30%
same,"viability, T/C",[6],12.1%
same,"viability, T/C",[7],100%
same,"viability, T/C",[8],81%
same,"viability, T/C",[9],59.7%
same,"viability, T/C",[10],43.9%
same,"viability, T/C",[11],33%
same,"viability, T/C",[12],12.2%
same,"viability, T/C",[13],80.9%
same,"viability, T/C",[14],70.3%
same,"viability, T/C",[15],56.2%
same,"viability, T/C",[16],38.8%
same,"viability, T/C",[17],28.2%
same,"viability, T/C",[18],12%
same,"viability, T/C",[19],84%
same,"viability, T/C",[20],80.4%
same,"viability, T/C",[21],58.3%
same,"viability, T/C",[22],40.7%
same,"viability, T/C",[23],29.5%
same,"viability, T/C",[24],13%
same,"viability, T/C",[25],76.5%
same,"viability, T/C",[26],71.8%
same,"viability, T/C",[27],53.8%
same,"viability, T/C",[28],43.3%
same,"viability, T/C",[29],27.8%
same,"viability, T/C",[30],15.5%
same,"viability, T/C",[31],57%
same,"viability, T/C",[32],60.9%
same,"viability, T/C",[33],49.3%
same,"viability, T/C",[34],30.7%
same,"viability, T/C",[35],27%
same,"viability, T/C",[36],14.1%
